According to patent US20030091510A1, “METHODS FOR TREATING AND PREVENTING ASTHMA AND NON-INVASIVE FUNGUS-INDUCED RHINOSINUSITIS” (priority 1997, published 2003):
In brackets after ≈: the same amount, converted by molar mass. Several values for one entry are separate records, joined by “and”; a condition that tells them apart may be missing. Identical values can stand only once. Each block holds one compound with its values, some of them ahead of it.

Tests used:
Geotrichum = experiment: MIC, macro broth dilution technique (NCCLS) on patient fungal isolates; assay type: cell-based; conditions: 48 hour MIC reading; isolate from rhinosinusitis patient
Description: (§1) The following procedure was used to determine effective antifungal agents as well as effective concentrations of antifungal agents such that the fungal organisms isolated from patients can be prevented from growing or killed.
(§2) Seventeen fungal isolates were collected from eight rhinosinusitis patients and tested for susceptibility against amphotericin B, ketoconazole, and itraconazole. Each antifungal agent was tested on these fungal isolates using the macro broth dilution technique according to the National Committee on Clinical Laboratory Standards (NCCLS) protocol. […] The results from this procedure provided an estimate of the efficacy of antifungal agents against specific fungal isolates in vitro.

Trichoderma = experiment: as above; assay type: cell-based; conditions: 48 hour MIC reading; isolate from rhinosinusitis patient
Description: as §1, §2

[1] = system: non-invasive fungus-induced rhinosinusitis patients; experiment: Amphotericin B nasal irrigation study, three month follow-up (Example 2); assay type: in vivo, human
Excerpt: In addition to patient interviewing, CT scan analysis, visual examination, and fungal culture analysis, two types of evaluations were used to score the success of the treatment: an endoscopic evaluation and a patient symptom evaluation. These evaluations were scored as follows:
(§3) Stage 0: no evidence of disease
(§4) Stage 1: polypoid changes/polyps seen by endoscopy only
(§5) Stage 2: polyps in the middle meatus
(§6) Stage 3: polyps filling the nasal cavity
(§7) Patient Symptom Evaluation
(§8) Stage −2: very bad/much worse
(§9) Stage 0: baseline/no change
(§10) Stage 2: very good/free of symptoms

[2] = system: fungal organisms within their mucus; experiment: Examination of mucus samples of non-responding patients for resistance; assay type: cell-based; conditions: five of the nine non-responding patients with available samples, all five
Excerpt: Eleven of the 53 patients went from endoscopic evaluation stage 2 or 3 to stage 1 after three months. […] Five of the nine non-responding patients had previously collected mucus samples that were available for examination.

rhinosinusitis patient = experiment: Single patient study, one-sided then two-sided amphotericin B irrigation, RAST assay to Alternaria; assay type: in vivo, human
[3] = system: non-invasive fungus-induced rhinosinusitis patients; experiment: Patients returning during a one week period on amphotericin B nasal irrigations (Table II); assay type: in vivo, human; set-up: key to Endoscopy Score A: endoscopy stage 0 = no disease to 3 = polyps filling nasal cavity; conditions: A = after antifungal treatment, one patient per line
Excerpt: as §3, §4, §5, §6, §7, §8, §9, §10
Only previously seen patients that were instructed to use the antifungal amphotericin B nasal irrigations were entered into this study.
During a one week period, twenty patients returned to the physician's office (Table II). The average age of the returning patients was 47 years (range 16-74 years). The patients were using the amphotericin B irrigations for an average duration of about six months (range 1-16 months). […] In addition, some patients were using topical and systemic steroid therapy. Further, some patients were using an antibiotic nasal irrigation in addition to the antifungal irrigations. The antibacterial solution contained 80 mg gentamicin per L saline (Wilson's solution). Some patients mixed the antibacterial solution with the antifungal solution and then performed the nasal irrigations while others used each solution separately in a sequential manner. Some patients also had other diseases including asthma (15 of the 20 patients) and colitis (2 of the 20 patients).

[4] = system: non-invasive fungus-induced rhinosinusitis patients; experiment: Amphotericin B irrigations in patients without previous nasal surgery (Example 3); assay type: in vivo, human; conditions: patient; for symptom score after treatment: score −1 before
Excerpt: A person was diagnosed with non-invasive fungus-induced rhinosinusitis and instructed to perform amphotericin B irrigations twice a day.
A person was diagnosed with non-invasive fungus-induced rhinosinusitis and instructed to perform amphotericin B irrigations twice a day, which was later increased to four times a day.
A person was diagnosed with non-invasive fungus-induced rhinosinusitis and instructed to perform amphotericin B irrigations twice a day. This patient had been given intramuscular steroid shots every 3 to 8 months with the last shot being administered about seven months prior to starting the amphotericin B irrigations.

[5] = system: non-invasive fungus-induced rhinosinusitis patient; experiment: Eosinophil count in mucosal biopsies after antifungal treatment (Example 4); assay type: in vivo, human; conditions: person
[6] = system: patients with previously diagnosed chronic asthma; experiment: Chronic asthma symptoms in patients of the Example 2 study (Example 5); assay type: in vivo, human
[7] = system: non-invasive fungus-induced rhinosinusitis patients; experiment: Itraconazole nasal irrigations in rhinosinusitis patients (Example 7); assay type: in vivo, human
Description: Three non-invasive fungus-induced rhinosinusitis patients (person, person, and person) were instructed to perform nasal irrigation with an itraconazole solution. The itraconazole solution contained about 100 mg of itraconazole per L of solution (10% PEG-400 in sterile water) and was prepared as described herein. […] Each patient reported marked improvement in symptoms within two weeks of starting the itraconazole irrigations (symptom scores: −1 to +2 and −1 to +1).
After treatment with itraconazole, that patient reported symptom improvement (symptom score: from −1 to 0).

Penicillium = experiment: MIC, macro broth dilution technique (NCCLS) on patient fungal isolates; assay type: cell-based; conditions: 48 hour MIC reading; isolates from rhinosinusitis patients; one isolate per table line
Description: as §1, §2

chronic asthma patient = experiment: Itraconazole nasal irrigations in an asthma patient, symptoms and pulmonary function (Example 8); assay type: in vivo, human
Description: Sputum and nasal-paranasal mucus samples were collected and analyzed.
The concentration of the itraconazole solution was about 100 mg per liter. After a few weeks, the patient took their last course of systemic steroids. About two months after stopping the systemic steroids, the patient also stopped using the topical steroids as well as the bronchodilator.

[8] = Oral itraconazole capsule, fraction remaining in the bowel lumen (Example 10); assay type: in vivo, human; conditions: 100 mg capsule before bedtime, at least two hours after last meal, without cola
Excerpt: Three out of five consecutive patients with chronic rhinosinusitis reported having a history of colitis. […] Each patient was instructed to take the capsule before bedtime a minimum of two hours after their last meal and without any cola. Food and cola beverages increase absorption of the drug.

Cladosporium = experiment: MIC, macro broth dilution technique (NCCLS) on patient fungal isolates; assay type: cell-based; conditions: 48 hour MIC reading; isolates from rhinosinusitis patients; one isolate per table line
Description: as §1, §2

[9] = after three months, about 20 mL of 100 mg/L solution per nostril two to four times daily
[10] = after treatment, three month follow-up
[11] = sixteen days after starting itraconazole irrigations, score 1 before
[12] = after seven months versus before treatment

SMILES: C[C@@H]1[C@H](O)[C@@H](C)/C=C/C=C/C=C/C=C/C=C/C=C/C=C/[C@H](O[C@@H]2O[C@H](C)[C@@H](O)[C@H](N)[C@@H]2O)C[C@@H]2O[C@](O)(C[C@@H](O)C[C@@H](O)[C@H](O)CC[C@@H](O)C[C@@H](O)CC(=O)O[C@H]1C)C[C@H](O)[C@H]2C(=O)O [Amphotericin B, amphotericin B]
MIC (Geotrichum): 0.1 µg/mL (≈ 0.108 µM)
MIC (Trichoderma): 4 µg/mL (≈ 4.33 µM)
CT scan finding, patient with bilateral rhinosinusitis ([1]; after four months, 20 mL of 100 mg/L solution per nostril two times daily, no recent surgery, no steroids, FIG. 1 and 2): complete disappearance of opacity and symptoms characteristic of rhinosinusitis
number of the 33 stage 0 cases confirmed by CT scans ([1]; after three months): Six
number of the 53 patients that went from endoscopic evaluation stage 2 or 3 to stage 0 (no evidence of disease) [1, 9]: 33
number of the 53 patients that went from endoscopic evaluation stage 2 or 3 to stage 1 [1, 9]: Eleven
number of the 53 patients that did not respond to the treatment ([1]; after three months, endoscopic evaluation): nine
number of the 53 patients giving themselves symptom stage 0 (baseline/no change) [1, 10]: six
number of the 53 patients giving themselves symptom stage 1 (good/improved) [1, 10]: three
number of the 53 patients giving themselves symptom stage 2 (very good/free of symptoms) [1, 10]: 44
number of different fungal species in mucus after versus before antifungal treatment ([1]; several patients, fungal organism culturing, amphotericin B irrigation of Example 2): remarkably reduced
susceptibility of fungal organisms in mucus of non-responding patients [2]: resistant
state of left paranasal sinuses at every post-operative visit (rhinosinusitis patient; left side surgery plus intra- and post-operative irrigation): clear of disease
symptoms after treatment of both sides (rhinosinusitis patient; right side surgery and irrigation of both sides for about seven weeks): symptom-free
Endoscopy Score A ([3]; irrigations 1-16 months, 1-2 x day, 0 no evidence of disease, 1 polypoid changes/polyps by endoscopy only, 2 polyps in middle meatus, 3 polyps filling nasal cavity): 0 (10×) and 3 (5×) and 1 (2×)
Symptom Score A ([3]; −2 very bad/much worse, −1 bad/worse, 0 baseline/no change, 1 good/improved, 2 very good/free of symptoms): +1 (6×) and +2 (6×) and 0 (6×) and −2 and 1
endoscopic score after treatment ([4]; irrigations twice a day for four months, score 0 before): 0
symptom score after treatment ([4]; irrigations twice a day for four months): +1
endoscopic score after treatment ([4]; irrigations twice a day for fourteen months, score 3 before): 0
symptom score after treatment ([4]; irrigations twice a day for fourteen months): +2
endoscopic score after treatment ([4]; irrigations twice, later four times a day, sixteen months, score 1 before): 0
symptom score after treatment ([4]; irrigations twice, later four times a day, sixteen months): +2
eosinophil count in mucosal biopsies, all sinuses except the frontal ([5]; after nine months of irrigations twice a day): < 5%
eosinophil count in the frontal sinus biopsy ([5]; after nine months of irrigations, frontal sinus obstructed, presumably not reached): 10%
number of the 28 patients that stopped taking their asthma medication ([6]; after starting antifungal treatment): 26
number of the 37 asthmatic patients declaring an improvement or complete elimination of asthma symptoms ([6]; after three months of antifungal treatment (amphotericin B irrigation of Example 2)): 28
pulmonary function test before versus after antifungal treatment ([6]; four of the 28 improved patients, all four): improved pulmonary function
patients of the 23 formerly on systemic steroids that took steroids after starting antifungal treatment ([6]; human, in vivo): none
adverse local reaction to nasal irrigations ([7]; third patient, amphotericin B irrigations): burning sensation

SMILES: CCC(C)n1ncn(-c2ccc(N3CCN(c4ccc(OCC5COC(Cn6cncn6)(c6ccc(Cl)cc6Cl)O5)cc4)CC3)cc2)c1=O (stereo not drawn) [Itraconazole, itraconazole]
MIC (Penicillium): 0.25 µg/mL (≈ 0.354 µM)
endoscopic score, left side [7, 11]: 1
endoscopic score, right side [7, 11]: 0
adverse local reaction to nasal irrigations ([7]; third patient, itraconazole irrigations): did not have any adverse local reaction
symptom score after itraconazole irrigations ([7]; third patient, switched because of adverse reaction to amphotericin B, score −1 before): 0
forced expiratory volume in 1 second (FEV1) after treatment (chronic asthma patient; after seven months of irrigations, 3.34 liter before treatment): 4.27 L
forced vital capacity (FVC) after treatment (chronic asthma patient; after seven months of irrigations, 3.99 liter before treatment): 4.80 L
maximal forced expiratory flow (FEFmax) after treatment (chronic asthma patient; after seven months of irrigations, 9.1 liter per second before treatment): 12.6 liter per second
maximum voluntary ventilation (MVV) after treatment (chronic asthma patient; after seven months of irrigations, 119 liter per minute before treatment): 156 liter per minute
improvement of MVV (chronic asthma patient; [12]): 31.90%
increase of FEFmax (chronic asthma patient; [12]): 38.46%
increase of FEV1 (chronic asthma patient; [12]): 27.84%
increase of FVC (chronic asthma patient; [12]): 20.30%
itraconazole that should remain in the bowel lumen [8]: about 50%

MIC (Cladosporium): 0.05 µg/mL (≈ 0.0941 µM)
MIC (Penicillium): 3.13 µg/mL (≈ 5.89 µM)
SMILES: CC(=O)N1CCN(c2ccc(OCC3COC(Cn4ccnc4)(c4ccc(Cl)cc4Cl)O3)cc2)CC1 (stereo not drawn) [Ketoconazole, ketoconazole]
